Test results taken from patent US10028942B2 (priority 2013, dated 2018).

Each molecule was assayed against T1, DLK (Homo sapiens, UniProt Q12852). Details: read-out: DLK (Ki) μM; TR-FRET; 5 nM GST-tagged DLK (catalytic domain aa 1-520), 40 nM HIS-MKK4 K131M substrate, 30 μM ATP, 60 minutes.
T1 sequence (Q12852 1-520): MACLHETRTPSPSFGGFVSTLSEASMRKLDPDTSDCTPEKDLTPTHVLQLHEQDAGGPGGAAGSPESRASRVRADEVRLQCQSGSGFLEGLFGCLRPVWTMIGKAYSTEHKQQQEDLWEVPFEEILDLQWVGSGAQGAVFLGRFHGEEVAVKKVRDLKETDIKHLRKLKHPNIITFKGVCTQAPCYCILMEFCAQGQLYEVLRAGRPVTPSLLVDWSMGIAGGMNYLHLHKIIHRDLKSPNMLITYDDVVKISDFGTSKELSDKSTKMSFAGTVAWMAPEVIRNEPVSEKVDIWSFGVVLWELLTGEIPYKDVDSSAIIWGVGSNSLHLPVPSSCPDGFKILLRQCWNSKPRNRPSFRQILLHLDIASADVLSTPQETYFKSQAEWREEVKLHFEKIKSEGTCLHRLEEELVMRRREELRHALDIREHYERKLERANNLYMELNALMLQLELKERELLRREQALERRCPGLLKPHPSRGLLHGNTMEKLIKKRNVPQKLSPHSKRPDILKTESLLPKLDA
`CC(C)Oc1cc(-c2cc([C@H]3[C@@H]4CN(C5COC5)C[C@@H]43)n(C3CCCC3)n2)cnc1N` [Compound 156, 5-(1-cyclopentyl-5-((1R,5S,6r)-3-(oxe-tan-3-yl)-3-azabicyclo[3.1.0]hexan-6-yl)-1H-pyrazol-3-yl)-3-isopropoxy-pyridin-2-amine] gave a Ki of 0.032 µM.
In the case of `COc1cc(-c2cc([C@H]3[C@@H]4CN(C5COC5)C[C@@H]43)n(C(C)C)n2)cnc1N` [Compound 145, 5-(1-isopropyl-5-((1R,5S,6r)-3-(oxetan-3-yl)-3-azabicyclo[3.1.0]hexan-6-yl)-1H-pyrazol-3-yl)-3-methoxy-pyridin-2-amine], the Ki is reported as 0.0074 µM.
In the case of `CC(C)n1nc(-c2cnc(N)c(C#N)c2)cc1[C@H]1[C@@H]2CN(C3COC3)C[C@@H]21` [Compound 144, 2-amino-5-(1-isopropyl-5-((1R,5 S,6r)-3-(oxetan-3-yl)-3-azabicyclo[3.1.0]hexan-6-yl)-1H-pyrazol-3-yl)nicotinonitrile], the Ki is reported as 0.022 µM.
For `Nc1ncc(-c2cc([C@H]3[C@@H]4COC[C@@H]43)n(C3CCCC3)n2)cc1Cl` [Compound 105, 5-(5-((1R,5S,6s)-3-oxabicyclo[3.1.0]hexan-6-yl)-1-cyclopentyl-1H-pyra-zol-3-yl)-3-chloropyridin-2-amine], the Ki was 0.096 µM.
With `CC(C)n1nc(-c2cnc(N)c(OC(F)(F)F)c2)cc1C(C)(C)C#N` [Compound 6, 2-(3-(6-amino-5-(trifluoromethoxy)pyridin-3-yl)-1-isopropyl-1H-pyrazol-5-yl)-2-methylpropanenitrile] the Ki was 0.14 µM.
`COCCN1C[C@@H]2[C@H](C1)[C@H]2c1cc(-c2cnc(N)c(C(F)(F)F)c2)nn1CC1CC1` [Compound 122, 5-(1-(cyclopropylmethyl)-5-((1R,5S, 6r)-3-(2-methoxyethyl)-3-azabicyclo [3.1.0]hexan-6-yl)-1H-pyrazol-3-yl)-3-(trifluoromethyl)pyridin-2-amine] gave a Ki of 0.0079 µM.
In the case of `Nc1ncc(-c2cc([C@H]3[C@@H]4CN(CC(F)(F)F)C[C@@H]43)n(C3COC3)n2)cc1Cl` [Compound 111, 3-chloro-5-(1-(oxetan-3-yl)-5-((1R,5S, 6r)-3-(2,2,2-trifluoroethyl)-3-azabi-cyclo[3.1.0]hexan-6-yl)-1H-pyrazol-3-yl)pyridin-2-amine], the Ki is reported as 0.18 µM.
For `COCCN1C[C@@H]2[C@H](C1)[C@H]2c1cc(-c2cnc(N)c(Cl)c2)nn1CC(C)C` [Compound 120, 3-chloro-5-(1-isobutyl-5-((1R,5S,6r)-3-(2-methoxyethyl)-3-azabicyclo[3.1.0]hexan-6-yl)-1H-pyrazol-3-yl)pyri-din-2-amine], the Ki was 0.03 µM.
In the case of `CC(C)n1nc(-c2cnc(N)c(C(F)(F)F)c2)cc1C1CN(C2COC2)C1` [Compound 60, 5-(1-isopropyl-5-(1-(oxetan-3-yl)azetidin-3-yl)-1H-pyrazol-3-yl)-3-(trifluoromethyl)pyridin-2-amine], the Ki is reported as 0.027 µM.
In the case of `CC(=O)N1CCC(c2cc(-c3cnc4[nH]cc(C(F)(F)F)c4c3)nn2C(C)C)CC1` [Compound 50, 1-(4-(1-isopropyl-3-(3-(trifluorometh-yl)-1H-pyrrolo[2,3-b]pyridin-5-yl)-1H-pyrazol-5-yl)piperidin-1-yl)etha-none], the Ki is reported as 0.0037 µM.
`CC(=O)N1CC(c2cc(-c3cnc4[nH]cc(C)c4c3)nn2CC2CC2)C1` [Compound 9, 1-(3-(1-(cyclopropylmethyl)-3-(3-meth-yl-1H-pyrrolo[2,3-b]pyridin-5-yl)-1H-pyrazol-5-yl)azetidin-1-yl)ethan-one] showed a Ki of 0.076 µM.
For `CC(C)n1nc(-c2cnc(N)c(C(F)(F)F)c2)cc1C1CCN(C2COC2)CC1` [Compound 76, 5-(1-isopropyl-5-(1-(oxetan-3-yl)piperidin-4-yl)-1H-pyrazol-3-yl)-3-(trifluoromethyl)pyridin-2-amine], the Ki was 0.15 µM.
`CC(C)n1nc(-c2cnc3[nH]cc(F)c3c2)cc1C1CN(C2COC2)C1` [Compound 58, 3-fluoro-5-(1-isopropyl-5-(1-(oxetan-3-yl)azetidin-3-yl)-1H-pyrazol-3-yl)-1H-pyrrolo[2,3-b]pyridine] was tested, and the Ki was 0.64 µM.
`COCCN1C[C@@H]2[C@H](C1)[C@H]2c1cc(-c2cnc(N)c(C(F)(F)F)c2)nn1CC(F)(F)F` [Compound 126, 5-(5-((1R,5S,6r)-3-(2-methoxyethyl)-3-azabicyclo[3.1.0]hexan-6-yl)-1-(2,2,2-trifluoroethyl)-1H-pyrazol-3-yl)-3-(trifluoromethyl)pyridin-2-amine] was tested, and the Ki was 0.0019 µM.
With `CC(C)n1nc(-c2cnc(N)c(C#N)c2)cc1C1CCN(C2COC2)CC1` [Compound 92, 2-amino-5-(1-isopropyl-5-(1-(oxetan-3-yl)piperidin-4-yl)-1H-pyrazol-3-yl)nicotinonitrile] the Ki was 0.94 µM.
Work on `CC(C)Oc1cc(-c2cc([C@H]3[C@@H]4CN(C5COC5)C[C@@H]43)n(C(C)C)n2)cnc1N` [Compound 146, 3-isopropoxy-5-(1-isopropyl-5-((1R,5S,6r)-3-(oxetan-3-yl)-3-azabicyclo [3.1.0]hexan-6-yl)-1H-pyrazol-3-yl) pyridin-2-amine] yielded a Ki of 0.014 µM.
With `CC(C)n1nc(-c2cnc(N)c(OC(F)(F)F)c2)cc1[C@H]1[C@@H]2CN(C3COC3)C[C@@H]21` [Compound 165, 5-(1-isopropyl-5-((1R,5S,6r)-3-(oxe-tan-3-yl)-3-azabicyclo[3.1.0]hexan-6-yl)-1H-pyrazol-3-yl)-3-(trifluorometh-oxy)pyridin-2-amine] the Ki was 0.0019 µM.
With `N#Cc1cc(-c2cc([C@H]3[C@@H]4CN(C5COC5)C[C@@H]43)n(C3CCCC3)n2)cnc1N` [Compound 138, 2-amino-5-(1-cyclopentyl-5-((1R,5S,6r)-3-(oxetan-3-yl)-3-azabicyclo[3.1.0]hexan-6-yl)-1H-pyrazol-3-yl)nicoti-nitrile] the Ki was 0.031 µM.
For `CC(C)n1nc(-c2cnc(N)c(C(F)(F)F)c2)cc1[C@H]1[C@@H]2CN(CC(C)(C)O)C[C@@H]21` [Compound 128, 1-((1R,5S,6r)-6-(3-(6-amino-5-(trifluoro-methyl)pyridin-3-yl)-1-isopropyl-1H-pyrazol-5-yl)-3-azabicyclo[3.1.0]hexan-3-yl)-2-methylpropan-2-ol], the Ki was 0.011 µM.
Work on `CC(C)n1nc(-c2cnc3[nH]cc(F)c3c2)cc1C1CCN(C2COC2)CC1` [Compound 75, 3-fluoro-5-(1-isopropyl-5-(1-(oxetan-3-yl)piperidin-4-yl)-1H-pyrazol-3-yl)-1H-pyrrolo[2,3-b]pyridine] yielded a Ki of 0.096 µM.
Work on `CC(C)n1nc(-c2cnc3[nH]cc(C(F)(F)F)c3c2)cc1[C@H]1[C@@H]2CN(C3COC3)C[C@@H]21` [Compound 133, 5-(1-isopropyl-5-((1R,5S,6r)-3-(oxe-tan-3-yl)-3-azabicyclo[3.1.0]hexan-6-yl)-1H-pyrazol-3-yl)-3-(trifluorometh-yl)-1H-pyrrolo[2,3-b]pyridine] yielded a Ki of 0.0004 µM.
Molecule `COCCN1C[C@@H]2[C@H](C1)[C@H]2c1cc(-c2cnc(N)c(Cl)c2)nn1C(C)C` [Compound 118, 3-chloro-5-(1-isopropyl-5-((1R,5S,6r)-3-(2-methoxyethyl)-3-azabicyclo[3.1.0]hexan-6-yl)-1H-pyrazol-3-yl) pyridin-2-amine] has a Ki of 0.034 µM.
Work on `FC(F)(F)c1c[nH]c2ncc(-c3cc(C4CN(C5COC5)C4)n(C4CCOC4)n3)cc12` (centres unmarked) [Compound 55, 5-(5-(1-(oxetan-3-yl)azetidin-3-yl)-1-(tetrahydrofuran-3-yl)-1H-pyrazol-3-yl)-3-(trifluoromethyl)-1H-pyrrolo[2,3-b]pyridine] yielded a Ki of 0.019 µM.
With `CC(C)n1nc(-c2cnc3[nH]cc(C#N)c3c2)cc1C1CN(C2COC2)C1` [Compound 59, 5-(1-isopropyl-5-(1-(oxetan-3-yl)aze-tidin-3-yl)-1H-pyrazol-3-yl)-1H-pyrro-lo[2,3-b]pyridine-3-carbonitrile] the Ki was 0.31 µM.
In the case of `CC(C)n1nc(-c2cnc(N)c(C3CC3)c2)cc1C1CCN(C2COC2)CC1` [Compound 98, 3-cyclopropyl-5-(1-isopropyl-5-(1-(oxe-tan-3-yl)piperidin-4-yl)-1H-pyra-zol-3-yl)pyridin-2-amine], the Ki is reported as 0.36 µM.
With `Nc1ncc(-c2cc([C@H]3[C@@H]4CN(C5COC5)C[C@@H]43)n(CC3CC3)n2)cc1OC(F)F` [Compound 173, 5-(1-(cyclopropylmethyl)-5-((1R,5S,6r)-3-(oxetan-3-yl)-3-azabicyclo[3.1.0]hexan-6-yl)-1H-pyrazol-3-yl)-3-(difluoromethoxy)pyridin-2-amine] the Ki was 0.0039 µM.
With `CC(C)n1nc(-c2cnc(N)c(OC(F)F)c2)cc1C(C)(C)O` [Compound 3, 2-(3-(6-amino-5-(difluoromethoxy)pyridin-3-yl)-1-isopropyl-1H-pyrazol-5-yl)propan-2-ol] the Ki was 0.14 µM.
`CC(C)n1nc(-c2cnc3[nH]cc(C(F)(F)F)c3c2)cc1C1CCN(C2CCC2)CC1` [Compound 101, 5-(5-(1-cyclobutylpiperidin-4-yl)-1-iso-propyl-1H-pyrazol-3-yl)-3-(trifluoro-methyl)-1H-pyrrolo[2,3-b]pyridine] gave a Ki of 0.001 µM.
For `Nc1ncc(-c2cc([C@H]3[C@@H]4CN(C5COC5)C[C@@H]43)n(CC(F)(F)F)n2)cc1C(F)(F)F` [Compound 174, 5-(5-((1R,5S,6r)-3-(oxetan-3-yl)-3-azabicyclo[3.1.0]hexan-6-yl)-1-(2,2,2-trifluoroethyl)-1H-pyrazol-3-yl)-3-(trifluoromethyl)pyridin-2-amine], the Ki was 0.0016 µM.
